Test [1] deals with P. falciparum NF54-HGL stage V gametocytes fed to A. stephensi mosquitoes. The test can be described thus: SMFA dose response (luminescence). Format: in vivo, Plasmodium falciparum. The protocol: Compounds were diluted in DMSO and then in culture medium (RPMI 1640 supplemented with 367 μM hypoxanthine, 25 mM Hepes, 25 mM sodium bicarbonate, and 10% human type A serum) to achieve a final DMSO concentration of 0.1%. Compounds were incubated with stage V gametocytes from the P. falciparum NF54-HGL reporter strain ([60]) for 48 hours at 37°C in Eppendorf tubes. Subsequently, parasites were pelleted by centrifugation (20 s at 20,000g) and resuspended in human type A serum containing diluted compound (final DMSO concentration of 0.1%) and human type O RBCs to achieve a hematocrit of 50%. This blood meal was then fed to 3- to 5-day-old A. stephensi mosquitoes [Sind-Kasur Nijmegen strain ([61])] for 10 min. Following feeding, unfed mosquitoes were removed, and mosquitoes were maintained at 26°C and 70 to 80% relative humidity. Eight days after feeding, oocyst intensity and prevalence were assessed by luminescence measurement of individual mosquitoes as described ([60]). All conditions were tested in duplicate, and for each replicate, a total of 24 mosquitoes were analyzed. IC50 values were estimated by fitting a four-parameter Hill model to the data using least squares to find the best fit. Controls included vehicle (0.1% DMSO) and 10 μM DHA.

The next test has as its system P. falciparum Dd2-B2. Nature of the test: 72-hour flow cytometry EC50 assay, Dd2-B2 parental line. The conditions noted are these: Plasmodium falciparum, DD2, read-out: EC50 Dd2-B2 parental line. In kind it is cell-based, Plasmodium falciparum. The protocol:
(§1) Stocks of SAL-0010003 (5-benzyl), SAL-0010355 (5-aryl), and SAL-0010419 (2-alkyl) were made at 10 and 1 mM in DMSO. Aliquots in use were stored at −20°C, and long-term storage was at −80°C. All in vitro studies were done such that the final DMSO concentration was <0.5%. P. falciparum ABS parasites were cultured at 3% hematocrit in human O+ RBCs in RPMI 1640 medium, supplemented with 25 mM Hepes, 50 mg L-hypoxanthine, 2 mM L-glutamine, 0.225% sodium bicarbonate, 0.5% (w/v) AlbuMAX II (Invitrogen) and gentamycin (10 μg/ml), in modular incubator chambers (Billups-Rothenberg) at 5% O2, 5% CO2, and 90% N2 at 37°C. Dd2-B2 (obtained from T. Wellems, National Institute of Allergy and Infectious Diseases, National Institutes of Health) is a genetically homogenous line that was cloned from Dd2 by limiting dilution. To define the EC50 and EC90 values of ABS parasites, Dd2-B2 ring-stage cultures at 0.2% parasitemia and 1% hematocrit were exposed for 72 hours to a range of 10 drug concentrations that were twofold serially diluted in duplicates along with drug-free controls. Parasite survival was assessed by flow cytometry on an iQue flow cytometer (Sartorius) using SYBR Green and MitoTracker Deep Red FM (Life Technologies) as nuclear stain and vital dyes, respectively. After determination of the EC50 and EC90 values for the three compounds with the P. falciparum Dd2-B2 clone, one single-step selection was set up using 2 × 10^5 parasites in each well of a 96-well plate at a starting concentration of 3× EC90. Parasites were cleared from the culture rapidly, and cultures were screened three times weekly by flow cytometry and counted as positive for recrudescence when the overall parasitemia reached 0.3% and the parasites were visible on a blood smear. DNA was extracted from recrudescent lines using a QIAGEN QIAamp Blood Mini Kit, and libraries were prepared with the Illumina DNA Prep kit for whole-genome sequencing on the Illumina MiSeq using a V3 2 × 300–base pair flow cell.

Test [2] deals with P. falciparum Dd2-B2 lines selected under drug pressure. Nature of the test: 72-hour flow cytometry EC50 assay, lines selected under drug pressure. Format: cell-based, Plasmodium falciparum. To be noted: for EC50: Plasmodium falciparum. As for the experimental part: Three examples of an additional compound series developed independently [NPD-2958, NPD-3518 ([31]), and NPD-3738; fig.
as §1
In general terms: In flow cytometry, cells or beads pass a laser one at a time.

Test [3] relates to P. falciparum (clone 3D7). The test can be described thus: Parasite reduction ratio (PRR) assay. In kind it is cell-based, Plasmodium falciparum. The protocol:
The in vitro killing profile of compounds was determined by monitoring the ability of parasites to recover following treatment with a compound of interest using a previously reported approach ([50]), which allowed calculation of the PRR ([51]). […] To quantify the number of viable parasites following treatment, four independent sets of threefold serial dilutions were performed on each sample, which were assayed for the presence or absence of parasites after 28 days using the LDH assay, and the number of viable parasites was determined by the number of wells showing growth. PRR and PCT99.9% were calculated as previously reported ([50]).

The test system of another test is P. falciparum 3D7. Nature of the test: Ex vivo 72-hour SYBR Green assay, 3D7 control (Uganda). In kind it is cell-based, Plasmodium falciparum. To be noted: Ugandan ex vivo assay control; read-out: EC50 lab strain 3D7. The protocol: (§2) Samples were delivered to the adjacent IDRC laboratory at Tororo District Hospital or transported by car from Masafu Hospital on the day of collection for storage of blood spots on filter paper (for isolation of nucleic acids) and initiation of ex vivo culture of malaria parasites. […] Before assay, 10 mM antimalarial stock compounds were diluted as necessary in DMSO and stored at −20°C. […] Compounds were serially diluted threefold in a 96-well assay plate in complete medium to a final volume of 50 μl, in columns 1 to 10, with concentrations optimized to capture full dose-response curves. Column 11 contained compound-free controls, while column 12 contained uninfected human RBC controls. Parasite culture (150 μl) was added to columns 1 to 11 of the assay plate with a final volume of 200 μl per well, 0.2% parasitemia, and 2% hematocrit. […] Thawed plates were incubated with SYBR Green lysis buffer for 1 hour in the dark as previously reported ([62]). Fluorescence was quantified using a BMG Fluostar Optima plate reader at an excitation of 485 nm and an emission of 530 nm, and data were plotted using GraphPad Prism 7. The data were curve fit with a variable slope function to estimate IC50 values. For each isolate, a Z′ factor to assess assay quality was calculated from positive controls (eight drug-free wells) and negative controls (eight parasite-free, red cell control wells). Z′ values over 0.5 were considered good assays, but each curve was also examined by eye for suitability. Some assays with Z′ below 0.5 may be considered valid depending on factors such as the SE of the curve-fit IC50.

A further test deals with P. falciparum Dd2. The test can be described thus: Ex vivo 72-hour SYBR Green assay, Dd2 control (Uganda). To be noted: Ugandan ex vivo assay control; read-out: EC50 lab strain Dd2. In kind it is cell-based, Plasmodium falciparum. The protocol:
as §2

Where two headings read alike, the source gives them in different places.

One may read the IC50 as the concentration that gives 50% inhibition. As usually defined, the EC50 is the concentration at which the effect is half-maximal. `CC(C)c1n[nH]c2c(=O)[nH]c(Cc3ccc(F)cc3F)nc12` [SAL-0010003]: the IC50 came to 116 nM in test [1] (read-out: SMFA IC50 infection (transmission) prevalence, 48 hours incubation; oocysts 8 days after feeding); 116 nM in test [1] (read-out: SMFA IC50 infection (transmission) prevalence; 48 hours incubation; oocysts 8 days after feeding); 67.3 nM in test [1] (read-out: SMFA IC50 oocyst (transmission) intensity, 48 hours incubation; oocysts 8 days after feeding); 67 nM in test [1] (read-out: SMFA IC50 oocyst (transmission) intensity; 48 hours incubation; oocysts 8 days after feeding). Also, the EC50 in the test on P. falciparum Dd2-B2 is 304 nM; in test [2] (DD2, read-out: EC50, line selected with SAL-0010003, Well A7), 2800 nM; in test [2] (DD2, read-out: EC50, line selected with SAL-0010003, Well E2), 2510 nM; in test [2] (DD2, read-out: EC50, line selected with SAL-0010003, Well F10), 1620 nM. In addition, the “Mean fold change in EC50” value in test [2] (selected lines vs Dd2-B2 parental line, ±SD) stood at 7.6 ± 2.0 fold. Moreover, the “EC50 shift, line selected with SAL-0010003, Well A7” value in test [2] (vs Dd2-B2) is reported as 9.2 fold. For the same molecule, in test [2] (vs Dd2-B2), the “EC50 shift, line selected with SAL-0010003, Well E2” value is recorded as 8.3 fold. Further, the “EC50 shift, line selected with SAL-0010003, Well F10” value in test [2] (vs Dd2-B2) is given as 5.3 fold. Also, the Lag phase in test [3] (10× EC50, 3D7) was 0 h. Moreover, the “Log PRR” value in test [3] (10× EC50, 3D7) was 3.11. In addition, the “PCT99.9% (hours taken to kill 99.9% of the parasites)” value in test [3] (10× EC50, 3D7) came to 47.1 h. Moreover, in test [3] (10× EC50, 3D7 killing profile), the Slope is −0.0647 ± 0.0047. Also, the Killing profile result in test [3] (10× EC50, faster than pyrimethamine, slower than chloroquine) is recorded as “fast/moderate killing profile”.
Take `CC(C)c1[nH]nc2c(=O)[nH]c(Cc3ccccc3F)nc12` [SAL-0010042]: the EC50 is 132 nM in the test with P. falciparum 3D7 and 115 nM with P. falciparum Dd2.

Source of the values: paper PMC11623267, “Inhibitors of malaria parasite cyclic nucleotide phosphodiesterases block asexual blood-stage development and mosquito transmission” (Science Advances, 2024).
